Here are results for six molecules from US20180271987A1, “Controlled Cell Delivery Vehicle and Treatment of Tumours” (The University of Nottingham, priority 2015, published 2018).

One assay has as its system NIH3t3: LSL-eGFP cells. Put plainly: Cre recombination assay (eGFP activation). It counts as cell-based, mouse. The following applies: cells pre-treated with the agent. An excerpt:
Previous studies have the avoided issues associated with direct measurement of fluorescent-tagged proteins (such as being unable to distinguish membrane, vesicle or functional cytosolic/nuclear protein) by assaying for the successful nuclear activity of Cre recombinase {Gump, 2010 #2}. This system was used to measure Cre-mediated recombination of a loxP-STOP-loxP (LSL) enhanced green fluorescent protein (eGFP) reporter gene in live NIH3t3 mouse fibroblast cells (NIH3t3: LSL-eGFP cells) as an indicator of cellular uptake (FIG. 18a). This system is rigorous as activation of green fluorescence requires exogenous Cre protein to enter the cell, undergo nuclear-translocation and excise the LSL fragment of the transgene. This must occur in live cells and be non-toxic for the subsequent expression of eGFP. […] To overcome this issue Cre proteins were delivered at limiting dilutions for a short exposure time (1 hour) and the minimum dose required to activate green fluorescence after 48 hours (FIG. 18c) was determined.
To measure Cre Recombinase activity the NIH3t3: LSL-eGFP cell line was created using the pZ/EG plasmid transfection and G-418 selection {Novak, 2000 #6}. […] 2×10^5 cells/well were plated (in 12-well plates), pre-incubated them in DMEM without serum for 1 hour and treated with Cre proteins (0-500 μg/ml) in DMEM without serum. After the Cre incubation cells were trypsinized, replated into complete media and incubated for 2 days. Cells were pre-treated with drugs for the stated time-period in DMEM without serum, were included in Cre-transduction medium and were added after replating. […] After incubations cell were trypsinized, washed, fixed in 4% PFA and % recombined cells was determined by flow cytometry. For mR-Cre-8R and P21-mR-Cre-8R comparisons concentrations of 100 μg/ml and 10 μg/ml were used, respectively and data was expressed as % maximum recombination (i.e. the % relative to the maximum recombination achieved at the stared dose of Cre).

The subject of another assay is cells. The following applies: literature; cited from earlier work.

As to `N=C(N)NC(=O)c1nc(Cl)c(N)nc1N` [Amiloride], in the assay on NIH3t3: LSL-eGFP cells, the “effect of drug or enzyme treatment on functional delivery / recombination of HETD-tagged Cre protein” value is reported as “dose-dependent reduction of functional transduction into cells”.

`C=C1[C@@H](C)[C@H]2[C@H](Cc3ccccc3)NC(=O)[C@]23[C@H](OC(C)=O)/C=C/[C@@](C)(O)C(=O)[C@@H](C)C/C=C/[C@H]3[C@@H]1O` [Cytochalasin D]: the “effect of drug or enzyme treatment on functional delivery / recombination of HETD-tagged Cre protein” value with NIH3t3: LSL-eGFP cells is “dose-dependent reduction of functional transduction into cells”.

`C[C@@H]1[C@H](O)[C@@H](C)/C=C/C=C/CC/C=C/C=C/C=C/C=C/C(O[C@H]2O[C@H](C)[C@@H](O)[C@H](N)[C@@H]2O)CC2O[C@](O)(CC(O)C(O)CCC(O)CC(O)CC(O)CC(=O)O[C@H]1C)CC(O)C2C(=O)O` (stereo partly drawn) [nystatin]: the “effect of drug or enzyme treatment on functional delivery / recombination of HETD-tagged Cre protein” value in the assay with NIH3t3: LSL-eGFP cells is listed as “dose-dependent inhibition of functional delivery”.

Consider Arg-Gly-Asp [RGD], for which the “increase of nanoparticle uptake” value with cells is recorded as 50%.

Turning to methyl-β-cyclodextrin, in the assay with NIH3t3: LSL-eGFP cells, the “effect of drug or enzyme treatment on functional delivery / recombination of HETD-tagged Cre protein” value was “dose-dependent inhibition of functional delivery”.

B1: heparinase III: enzyme used to deplete cell membrane GAGs (protein, UniProt Q59289 25-659, looked up)
Heparin-sulfate lyase: QSSSITRKDFDHINLEYSGLEKVNKAVAAGNYDDAAKALLAYYREKSKAREPDFSNAEKPADIRQPIDKVTREMADKALVHQFQPHKGYGYFDYGKDINWQMWPVKDNEVRWQLHRVKWWQAMALVYHATGDEKYAREWVYQYSDWARKNPLGLSQDNDKFVWRPLEVSDRVQSLPPTFSLFVNSPAFTPAFLMEFLNSYHQQADYLSTHYAEQGNHRLFEAQRNLFAGVSFPEFKDSPRWRQTGISVLNTEIKKQVYADGMQFELSPIYHVAAIDIFLKAYGSAKRVNLEKEFPQSYVQTVENMIMALISISLPDYNTPMFGDSWITDKNFRMAQFASWARVFPANQAIKYFATDGKQGKAPNFLSKALSNAGFYTFRSGWDKNATVMVLKASPPGEFHAQPDNGTFELFIKGRNFTPDAGVFVYSGDEAIMKLRNWYRQTRIHSTLTLDNQNMVITKARQNKWETGNNLDVLTYTNPSYPNLDHQRSVLFINKKYFLVIDRAIGEATGNLGVHWQLKEDSNPVFDKTKNRVYTTYRDGNNLMIQSLNADRTSLNEEEGKVSYVYNKELKRPAFVFEKPKKNAGTQNFVSIVYPYDGQKAPEISIRENKGNDFEKGKLNLTLTINGKQQLVLVP
For the molecule B1, the “effect of drug or enzyme treatment on functional delivery / recombination of HETD-tagged Cre protein” value in the assay on NIH3t3: LSL-eGFP cells is “reduced recombination to basal-levels”.
